Measurements taken from ChEMBL document CHEMBL1151494, “Synthesis of new building blocks for peptide nucleic acids containing monomers with variations in the backbone” (Bioorg Med Chem Lett, 1997).
Active and inactive are the calls of the source. No cut-off for these calls is given here.

Tests used:
[1] = The stability against nucleases; Active
[2] = tested on: Proteinase K (Tritirachium album); experiment: The stability against proteinase K; Active

Which Stability [1] does the source give for `Cc1cn([C@@H]2C[C@@H](C(=O)NCC(=O)O)N(C(=O)CNC(=O)[C@@H]3C[C@@H](n4cc(C)c(=O)[nH]c4=O)CN3C(=O)CNC(=O)[C@@H]3C[C@@H](n4cc(C)c(=O)[nH]c4=O)CN3C(=O)CNC(=O)[C@@H]3C[C@@H](n4cc(C)c(=O)[nH]c4=O)CN3C(=O)CNC(=O)[C@@H]3C[C@@H](n4cc(C)c(=O)[nH]c4=O)CN3C(=O)CNC(=O)[C@@H]3C[C@@H](n4cc(C)c(=O)[nH]c4=O)CN3C(=O)CNC(=O)[C@@H]3C[C@@H](n4cc(C)c(=O)[nH]c4=O)CN3C(=O)CNC(=O)[C@@H]3C[C@@H](n4cc(C)c(=O)[nH]c4=O)CN3C(=O)[C@@H](N)CCCCN)C2)c(=O)[nH]c1=O` here?
Its Stability is “Active”.

What about the Stability [2] of the same molecule?
Its Stability is “Active”.

Which results are given for `Cc1cn(CC(=O)N2C[C@H](N)C[C@H]2C(=O)NC2C[C@@H](C(=O)N[C@@H]3C[C@@H](C(=O)NC4C[C@@H](C(=O)N[C@@H]5C[C@@H](C(=O)NC6C[C@@H](C(=O)N[C@@H]7C[C@@H](C(=O)NC8C[C@@H](C(=O)N[C@@H](C)C(=O)O)N(C(=O)Cn9cc(C)c(=O)[nH]c9=O)C8)N(C(=O)Cn8cc(C)c(=O)[nH]c8=O)C7)N(C(=O)Cn7cc(C)c(=O)[nH]c7=O)C6)N(C(=O)Cn6cc(C)c(=O)[nH]c6=O)C5)N(C(=O)Cn5cc(C)c(=O)[nH]c5=O)C4)N(C(=O)Cn4cc(C)c(=O)[nH]c4=O)C3)N(C(=O)Cn3cc(C)c(=O)[nH]c3=O)C2)c(=O)[nH]c1=O` (stereo partly drawn)?
Stability [1]: Active; Stability [2]: Active

What does the source list for `Cc1cn([C@H]2C[C@@H](C(=O)NCC(=O)O)N(C(=O)CNC(=O)[C@@H]3C[C@H](n4cc(C)c(=O)[nH]c4=O)CN3C(=O)CNC(=O)[C@@H]3C[C@H](n4cc(C)c(=O)[nH]c4=O)CN3C(=O)CNC(=O)[C@@H]3C[C@H](n4cc(C)c(=O)[nH]c4=O)CN3C(=O)CNC(=O)[C@@H]3C[C@H](n4cc(C)c(=O)[nH]c4=O)CN3C(=O)CNC(=O)[C@@H]3C[C@H](n4cc(C)c(=O)[nH]c4=O)CN3C(=O)CNC(=O)[C@@H]3C[C@H](n4cc(C)c(=O)[nH]c4=O)CN3C(=O)CNC(=O)[C@@H]3C[C@H](n4cc(C)c(=O)[nH]c4=O)CN3C(=O)[C@@H](N)CCCCN)C2)c(=O)[nH]c1=O`?
Stability [1]: Active; Stability [2]: Active

With `Cc1cn(CC(=O)N2C[C@@H](N)C[C@H]2C(=O)NC2C[C@@H](C(=O)N[C@H]3C[C@@H](C(=O)NC4C[C@@H](C(=O)N[C@H]5C[C@@H](C(=O)NC6C[C@@H](C(=O)N[C@H]7C[C@@H](C(=O)NC8C[C@@H](C(=O)N[C@@H](C)C(=O)O)N(C(=O)Cn9cc(C)c(=O)[nH]c9=O)C8)N(C(=O)Cn8cc(C)c(=O)[nH]c8=O)C7)N(C(=O)Cn7cc(C)c(=O)[nH]c7=O)C6)N(C(=O)Cn6cc(C)c(=O)[nH]c6=O)C5)N(C(=O)Cn5cc(C)c(=O)[nH]c5=O)C4)N(C(=O)Cn4cc(C)c(=O)[nH]c4=O)C3)N(C(=O)Cn3cc(C)c(=O)[nH]c3=O)C2)c(=O)[nH]c1=O` (stereo partly drawn) as the molecule, how does the Stability [1] read?
The Stability was “Active”.

What about the Stability [2] of the same molecule?
Its Stability is “Active”.
